These results are taken from US20230145822A1 (priority 2020, published 2023).

Data set [1] has as its target human PrP^C (Homo sapiens, UniProt P04156). It counts as cell-based.
For data set [2], the system named is EGFP-PrP^C. The class given is cell-based, mouse. The following applies: 24 h, 3-10 μM.
Data set [3] deals with PrP^C (Mus musculus, UniProt P04925). It counts as cell-based. The following applies: 1-10 μM, 24 h, PNGase-F.
The subject of data set [4] is NEGR-1. The class given is cell-based.
The subject of data set [5] is HEK293 cells.
For data set [6], the system named is PrP^C mRNA. The class given is cell-based, human.
Data set [7] has as its system LC3II. It counts as cell-based.
In data set [8] the test system is mouse PrP^C mRNA. The class given is cell-based.
In data set [9] the test system is PrP^C mRNA. It counts as cell-based, mouse.
For data set [10], the system named is ZR-75 cells. As to conditions: human.
The test system of data set [11] is RML prion strain. The class given is cell-based, mouse.

“Also recorded” adds a separate entry of the source. Read-outs that look alike come from different tables or passages of the source. Where only a bound is given, the exact number is not on record here.

PrP^C, sequence (P04925 23-254 limits assumed): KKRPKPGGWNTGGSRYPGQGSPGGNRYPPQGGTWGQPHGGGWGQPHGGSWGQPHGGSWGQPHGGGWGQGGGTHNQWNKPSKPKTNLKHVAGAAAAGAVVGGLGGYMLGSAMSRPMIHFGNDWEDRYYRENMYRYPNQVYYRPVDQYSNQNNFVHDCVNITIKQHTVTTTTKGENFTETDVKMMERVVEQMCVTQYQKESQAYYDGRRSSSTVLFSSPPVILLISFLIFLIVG

Regarding `CO/C1=C\C(C)=C\[C@@H](C)[C@@H](O)[C@@H](C)C/C(C)=C/C=C/[C@H](OC)[C@@H]([C@@H](C)[C@@H](O)[C@H](C)[C@@]2(O)C[C@@H](O)[C@H](C)[C@@H](C(C)C)O2)OC1=O` [BAF, Bafilomycin A1, reference compound], in [1], the “effect on SM875-induced decrease of PrP^C levels” value is listed as “almost completely prevents”.
Consider `COc1cc(C2CC(=O)Nc3c2cnn3-c2ccc(I)cc2)ccc1O` (stereo not shown) [GC6], for which, in data set [1], the IC25 result is listed as “sub-micromolar”, the IC50 result was “sub-micromolar” and the “effect on PrP^C expression” value was “even more prominent activity in ZR-75 cells than in HEK293 cells”.
With `COc1cc(C2CC(=O)Nc3c2cnn3-c2ccc(Br)cc2)ccc1O` (stereo not shown) [SM875], the “cell surface EGFP-PrP^C” value in data set [2] is given as “drastic reduction”. Besides, the “alpha-cleavage (C1 PrP)” value in [3] was “dose-dependent increase of Cl PrP”. In addition, in [4], the “effect on control protein NEGR-1” value is reported as “did not produce any effect”. Further, the cytotoxicity entry in data set [5] is listed as “evident cytotoxicity”. Moreover, the “estimated median lethal dose, LD50” value in [5] (human) was 4.6 µM. The “PrP^C mRNA levels” value in [6], in data set [8] and in data set [9] was “does not decrease PrP^C mRNA levels” in each case. In [7], the LC3II levels entry is reported as “large increase; also recorded: much smaller increase”.
Consider `COc1cc(C2CC(=O)Nc3c2cnn3-c2cccc(F)c2)ccc1O` (stereo not shown) [SM898], for which, in data set [5] (human), the “estimated median lethal dose, LD50” value was 37.9 µM and the “reduction of cytotoxicity versus SM875” value is roughly 3 times.
As to `OCC(O)Cn1c2ccc(Br)cc2c2cc(Br)ccc21` (stereo not shown) [SM930], the “concentration inducing cell death” value in data set [5] (human) and in data set [10] was 30 µM each time. For the same compound, in data set [1], the “concentration from which human PrP^C expression is suppressed” value is no less than 3 µM.
Regarding `Cc1ccccc1Cn1c(=O)c2c(nc3n(-c4ccccc4O)c(C)c(C)n23)n(C)c1=O` [SM940], the “concentration inducing cell death” value in [5] (human) and in data set [10] was greater than 30 µM throughout. Further, in data set [8], the “PrP^C mRNA levels” value was “do not suppress mouse PrP^C mRNA levels”. Also, in data set [1], the “concentration from which human PrP^C expression is suppressed” value is no less than 3 µM.
With `COc1cc2c(cc1OC)CN(C(=O)c1cccc(Cl)c1)CC2` [SM950], the figures for the “concentration inducing cell death” value in [5] (human) and in data set [10] were no less than 3 µM and 30 µM, respectively. For the same compound, the “PrP^C mRNA levels” value in data set [8] is “do not suppress mouse PrP^C mRNA levels”. In addition, the “concentration from which human PrP^C expression is suppressed” value in [1] was no less than 1 µM.
In the case of `OC[C@H]1O[C@H](O[C@H]2O[C@H](CO)[C@@H](O)[C@H](O)[C@H]2O)[C@H](O)[C@@H](O)[C@@H]1O` [trehalose, reference compound], the LC3II levels entry in [7] was “increased LC3-II levels”.
As to Fe(III)-TMPyP, the “prion levels (PK-resistant PrP)” value in data set [11] is “inhibits prion levels”.
